Measured values as given in patent US20100028259A1, “USE OF ORGANIC CATION TRANSPORTERS FOR CANCER DIAGNOSIS AND THERAPY” (The Regents of the University of California, priority 2006, published 2010).
Where two headings read alike, the source gives them in different places.

Key:
[1] = system: MDCK-MOCK cells; test: MTT drug sensitivity assay in MDCK-MOCK cells; type: cell-based, canine; details: read-out: IC50 MDCK-MOCK
Description: (§1) Cytotoxicity of the platinum-based compounds was measured by MTT (thiazolyl blue tetrazolium bromide) assay. Cells were seeded in 100 μl of the culture medium without any antibiotics in 96-well plates at a predetermined cell density. For HEK 293 cells, poly-D-lysine coated plates were used. After overnight incubation, the platinum-based compounds were then added to the culture medium to give the indicated final concentrations. For the OCT inhibitor studies, the inhibitors (i.e., disopyramide or cimetidine) were added to the medium at a specified concentration immediately before the addition of the platinum-based compounds. After incubation for a specified time period, the drug-containing medium was replaced with fresh, drug-free medium and the incubation was continued for a total of 72 hours (start from the addition of platinum-based compounds). Then, the MTT assay was performed similarly as described in Alley et al., Cancer Res., 48:589-601 (1988). […] The maximal cell growth was the cell growth in the medium without any platinum-based compounds; C is the concentration of the platinum-based compound, and γ is the slope factor.
(§2) Briefly, the cells were seeded in 96-well plates at a density of 5,000 cells/well for the transfected MDCK cells or 12,000 cells/well for the transfected HEK 293 cells. The platinum-based drugs were added on the following day. After the specified time periods of drug exposure, the drug-containing medium was replaced with fresh, drug-free medium, and the incubation was continued for a total of 72 hours (start from the time when the drug was added). After incubation, the cell growth was determined by an MTT assay. Data are expressed as mean±SD from 3 to 6 independent experiments with each performed in quadruplicate. The resistance factor (RF) was defined as the ratio of the mean IC50 value in the MOCK cells to that in the OCT-transfected cells.
(§3) Briefly, MDCK cells were seeded at a density of 5,000 cells/well in 96-well plates and exposed to the test compounds for 7 hours on the following day. After incubation for a total of 72 hours, the cell growth was determined by an MTT assay. The data for carboplatin was taken from Table 1 and was not determined simultaneously with the other compounds. The resistance factor (RF) was defined as the ratio of the mean IC50 value in MDCK-MOCK cells to that in MDCK-hOCT1 cells. Data are expressed as mean±SD from six measurements, and each measurement was performed in quadruplicate.

[2] = system: MDCK-hOCT1 cells; test: MTT drug sensitivity assay in MDCK-hOCT1 cells; type: cell-based, canine; details: read-out: IC50 MDCK-hOCT1
Description: as §1, with “After overnight incubation, the platinum-based compounds were then added to the culture medium to give the indicated final concentrations.” left out
as §2, §3

[3] = system: SW620; test: MTT drug sensitivity, colon cancer cell line SW620; type: cell-based, human
Description: as §1, with “After overnight incubation, the platinum-based compounds were then added to the culture medium to give the indicated final concentrations.” left out
(§4) The cell seeding density was 6,000-, 8,000-, 6,000-, 15,000-12,000- and 4,000 cells/well for HCT116, HT29, RKO, SW620, LS180, and DLD cells, respectively. When cimetidine (1.5 mM) was used, it was added to the wells immediately before the addition of the platinum-based drugs. The resistance factor (RF) was defined as the ratio of the mean IC50 value in the presence to that in the absence of cimetidine. Data are expressed as mean±SD from six measurements, and each measurement was performed in quadruplicate.

[4] = system: HCT116; test: MTT drug sensitivity, colon cancer cell line HCT116; type: cell-based, human
Description: as §1, with “After overnight incubation, the platinum-based compounds were then added to the culture medium to give the indicated final concentrations.” left out
as §4

[5] = system: HEK-hOCT3 cells; test: MTT drug sensitivity assay in HEK-hOCT3 cells; type: cell-based, human; details: drug exposure 7 hour
Description: as §1, with “After overnight incubation, the platinum-based compounds were then added to the culture medium to give the indicated final concentrations.” left out
as §2

[6] = system: HEK-MOCK cells; test: MTT drug sensitivity assay in HEK-MOCK cells (control of HEK-hOCT2); type: cell-based, human; details: drug exposure 7 hour; Table 2; read-out: IC50 HEK-MOCK
Description: as §1, §2

[7] = system: six colon cancer cell lines; test: MTT drug sensitivity, summary over the six colon cancer cell lines; type: cell-based, human
Description: as §1, with “After overnight incubation, the platinum-based compounds were then added to the culture medium to give the indicated final concentrations.” left out
The resistance factor (RF) due to the presence of cimetidine was defined as the ratio of the IC50 value in the presence of cimetidine to that in the absence of cimetidine.
as §4

[8] = system: HEK-hOCT2 cells; test: MTT drug sensitivity assay in HEK-hOCT2 cells; type: cell-based, human; details: drug exposure 7 hour; read-out: IC50 HEK-hOCT2
Description: as §1, with “After overnight incubation, the platinum-based compounds were then added to the culture medium to give the indicated final concentrations.” left out
as §2

[9] = system: HT29; test: MTT drug sensitivity, colon cancer cell line HT29; type: cell-based, human
Description: as §1, with “After overnight incubation, the platinum-based compounds were then added to the culture medium to give the indicated final concentrations.” left out
as §4

[10] = system: HEK-MOCK cells; test: MTT drug sensitivity assay in HEK-MOCK cells (control of HEK-hOCT3); type: cell-based, human; details: drug exposure 7 hour; Table 3
Description: as §1, §2

[11] = system: RKO; test: MTT drug sensitivity, colon cancer cell line RKO; type: cell-based, human
Description: as §1, with “After overnight incubation, the platinum-based compounds were then added to the culture medium to give the indicated final concentrations.” left out
as §4

[12] = system: DLD; test: MTT drug sensitivity, colon cancer cell line DLD; type: cell-based, human
Description: as §1, with “After overnight incubation, the platinum-based compounds were then added to the culture medium to give the indicated final concentrations.” left out
as §4

[13] = system: LS180; test: MTT drug sensitivity, colon cancer cell line LS180; type: cell-based, human
Description: as §1, with “After overnight incubation, the platinum-based compounds were then added to the culture medium to give the indicated final concentrations.” left out
as §4

[14] = system: HEK-MOCK cells; test: Cellular accumulation of platinum in HEK-MOCK cells (ICP-MS); type: in vitro ADME, human; details: cimetidine 1.5 mM
Description: (§5) For the inhibitor studies, the incubation medium also contained disopyramide (150 μM). […] For the inhibitor studies, the incubation medium also contained cimetidine (1.5 mM). […] After drug exposure, the cells were washed with ice-cold PBS three times and harvested by scraping and centrifugation. The cell-associated platinum was determined by ICP-MS and normalized for protein content. Data are expressed as mean±SD from a single experiment performed in triplicate. Experiments were replicated for OCT1 and OCT2, and similar results were obtained.
The cellular accumulation of platinum was determined as described in Holzer et al., Mol. Pharmacol., 66:817-823 (2004) with some modifications. Briefly, the cells were grown in 100 mm×20 mm dishes in the culture medium without any antibiotics to over 90% confluence. For HEK 293 cells, poly-D-lysine coated dishes were used. For platinum accumulation, the cells were incubated in the culture medium containing the indicated concentrations of the platinum compounds at 37° C. in 5% CO2 for 2 hr unless specified. […] The platinum content was measured by inductively plasma coupled mass spectrometry (ICP-MS) in the Analytical Facility at the University of California at Santa Cruz (Santa Cruz, Calif.). […]

[15] = system: HEK-hOCT2 cells; test: Cellular accumulation of platinum in HEK-hOCT2 cells (ICP-MS); type: in vitro ADME, human; details: 2-hr exposure
Description: as §5
(§6) The cellular accumulation of platinum was determined as described in Holzer et al., Mol. Pharmacol., 66:817-823 (2004) with some modifications. Briefly, the cells were grown in 100 mm×20 mm dishes in the culture medium without any antibiotics to over 90% confluence. For HEK 293 cells, poly-D-lysine coated dishes were used. For platinum accumulation, the cells were incubated in the culture medium containing the indicated concentrations of the platinum compounds at 37° C. in 5% CO2 for 2 hr unless specified. After incubation, the dishes were immediately placed on ice and the cells were washed with 6 ml of ice-cold PBS for three times and collected with a rubber policeman. The cell pellets were obtained by centrifugation at 400×g and at 4° C. for 15 min. For the OCT inhibitor studies, the incubation medium also contained the indicated inhibitor (i.e., disopyramide or cimetidine) in addition to the platinum-based compounds. The resulting cell pellets were then dissolved into 200 μl of 70% nitric acid at 65° C. for at least 2.5 hours, and then distilled water containing 10 ppb of iridium (Sigma) and 0.1% Triton X-100 was added to the samples to dilute nitric acid to 7%. The platinum content was measured by inductively plasma coupled mass spectrometry (ICP-MS) in the Analytical Facility at the University of California at Santa Cruz (Santa Cruz, Calif.). Cell lysates from a set of identical cultures were used for BCA protein assay.

[16] = system: MDCK-MOCK cells; test: Cellular accumulation of platinum in MDCK-MOCK cells (ICP-MS); type: in vitro ADME, canine; details: 2-hr exposure, drug 15 μM
Description: as §5, §6

[17] = system: MDCK-hOCT1 cells; test: Cellular accumulation of platinum in MDCK-hOCT1 cells (ICP-MS); type: in vitro ADME, canine; details: 2-hr exposure
Description: as §5, §6

[18] = SAR study Table 4, 7 hours of drug exposure
[19] = drug exposure 7 hour, MTT at 72 hours, Table 1
[20] = absence of cimetidine, read-out: IC50 Control
[21] = cimetidine 1.5 mM, read-out: IC50 Cimetidine-treated

O=C1[O][Pt]2([NH]C3CCCCC3[NH]2)[O]C1=O [[Pt(S,S-DACH)oxalato]]
IC50 [1, 18]: 30 ± 14.2 µM | IC50 [2, 18]: 1.45 ± 1.16 µM

[Cl][Pt]1([Cl])[NH]C2CCCCC2[NH]1 [[Pt(S,S-DACH)Cl2]]
IC50 [1, 18]: 16.2 ± 3.72 µM | IC50 [2, 18]: 0.57 ± 0.18 µM

[Pt(NH3)2(trans-1,2-(OCO)2C6H10)] [[Pt(NH3)2(trans-1,2-(OCO)2C6H10]]
IC50 [1, 18]: 21.4 ± 2.94 µM | IC50 [2, 18]: 10.8 ± 2.66 µM

N.N.[Cl][Pt][Cl] [cisplatin]
IC50 ([3]; SW620, absence of cimetidine, read-out: IC50 Control): 12.6 ± 1.95 µM | IC50 ([3]; SW620, cimetidine 1.5 mM, read-out: IC50 Cimetidine-treated): 22.2 ± 4.92 µM | IC50 ([4]; HCT116, absence of cimetidine, read-out: IC50 Control): 5.42 ± 1.34 µM | IC50 ([4]; HCT116, cimetidine 1.5 mM, read-out: IC50 Cimetidine-treated): 10.2 ± 3.23 µM | IC50 [5]: 2.44 ± 0.71 µM | IC50 [1, 18]: 6.32 ± 0.74 µM | IC50 [1, 19]: 19.6 ± 7.56 µM | IC50 [6]: 2.95 ± 0.23 µM | IC50 [2, 18]: 3.58 ± 0.3 µM | IC50 [2, 19]: 15.4 ± 2.84 µM | IC50 ([7]; absence of cimetidine, read-out: mean±SE of IC50 in the six cell lines, control): 10.5 ± 2.02 µM | IC50 ([7]; cimetidine 1.5 mM, read-out: mean±SE of IC50 in the six cell lines, in the presence of cimetidine): 19.4 ± 4.32 µM | IC50 [8]: 1.32 ± 0.18 µM | IC50 ([9]; HT29, absence of cimetidine, read-out: IC50 Control): 12.4 ± 3.91 µM | IC50 ([9]; HT29, cimetidine 1.5 mM, read-out: IC50 Cimetidine-treated): 30.8 ± 11 µM | IC50 [10]: 2.83 ± 0.9 µM | IC50 [11, 20]: 8.58 ± 2.38 µM | IC50 [11, 21]: 12.5 ± 4.44 µM | IC50 [12, 20]: 18.4 ± 7.58 µM | IC50 [12, 21]: 32.3 ± 10.3 µM | IC50 ([13]; LS180, absence of cimetidine, read-out: IC50 Control): 5.72 ± 1.75 µM | IC50 ([13]; LS180, cimetidine 1.5 mM, read-out: IC50 Cimetidine-treated): 8.27 ± 3.35 µM

NCCN.[Cl][Pt][Cl] [[Pt(Cl2)(en)]]
IC50 [1, 18]: 33.2 ± 11.5 µM | IC50 [2, 18]: 10.2 ± 4.76 µM

N.NC1CCCCC1.[Cl][Pt][Cl] [cis-[Pt(NH3)(Cy)Cl2]]
IC50 [1, 18]: 1.42 ± 0.15 µM | IC50 [2, 18]: 0.16 ± 0.03 µM

N.N.O=C([O-])C1(C(=O)[O-])CCC1.[Pt+2] [carboplatin]
IC50 [5]: 48.1 ± 23.4 µM | IC50 [1, 18]: 258 ± 86.3 µM | IC50 [1, 19]: 258 ± 86.3 µM | effect of cimetidine on platinum accumulation / cellular uptake in HEK-MOCK [14]: little effect | IC50 [6]: 110 ± 46.3 µM | IC50 [2, 18]: 227 ± 85.8 µM | IC50 [2, 19]: 227 ± 85.8 µM | IC50 [8]: 61.6 ± 46.3 µM | fold higher platinum accumulation rate, HEK-hOCT2 vs HEK-MOCK [15]: 1.38 fold | cellular platinum accumulation rate in HEK-hOCT2 ([15]; drug 10 μM): 4.17±0.18 pmol/mg protein-hr | IC50 [10]: 84.8 ± 9.71 µM | cellular platinum accumulation rate in MDCK-MOCK [16]: 2.22±0.07 pmol/mg protein-hr | cellular platinum accumulation rate in MDCK-hOCT1 ([17]; drug 15 μM): 2.77±0.36 pmol/mg protein-hr | effect of disopyramide on platinum accumulation rate in MDCK-hOCT1 ([17]; disopyramide 150 μM): not inhibited by disopyramide

[Cl][Pt]1([Cl])[NH]C2CCCCC2[NH]1 [[Pt(R,R-DACH)Cl2]]
IC50 [1, 18]: 15 ± 3.24 µM | IC50 [2, 18]: 0.65 ± 0.26 µM
